System: sweetness
Test: Orange juice; partial least squares regression of volatiles against sweetness independent of total sugar (Table 9)
Assay type: in vivo, human
Settings: not given
Experimental: Volatile content of orange juice was assessed and analyzed similar to as described above for tomato, strawberry, and blueberry, described above. The process for obtaining volatile samples from orange juice was slightly different than for tomatoes, strawberries and blueberries. […] Briefly, instead of collecting volatiles at room temperature from a fruit mash in headspace of a closed area, the volatiles were elicited by heating the juice to collect volatiles.

Compound	Total Sugar t Ratio
C=C(C)[C@@H]1CC=C(C)[C@@H](O)C1 (relative stereo) [carveol, trans]	2.542
C/C=C(C)/C=C/C=C(C)C [E,E-alloocimene]	3.337
C=C(C)[C@H]1C=C[C@](C)(O)CC1 [E-p-mentha-2,8-dien-1-ol]	1.258
C=C(C)[C@@H]1CCC2=CCC[C@H](C)[C@@]2(C)C1 [Eremophilene]	1.738
C[Si](C)(C)CCOC(=O)CC(=O)OCC[Si](C)(C)C [Malonic acid, bis(2-trimethylsilylethyl ester]	3.148
C[Si](C)(O)O [Silanediol, dimethyl-]	1.781
CC1=CC[C@H]2[C@H]3[C@@H]1[C@]2(C)CC[C@H]3C(C)C [copaene]	2.06
C=C(C)[C@@H]1CCC2=CCC[C@@H](C)[C@]2(C)C1 [valencene]	2.206
CC(=O)/C=C/C1C(C)=CCCC1(C)C (stereo not drawn) [α-ionone]	2.042
CC1=CCCC2(C)CCC3C(C)(C)CC132 (stereo not drawn) [α-panasinsen]	2.909
C=C(C)[C@@H]1CC[C@@]2(C)CCC=C(C)[C@@H]2C1 [α-selinene]	2.428
CC1=CC[C@H]2C(C)=CC[C@@H](C(C)C)[C@@H]2C1 [β-cadinene]	2.69
CC(=O)/C=C/C1=C(C)CCCC1(C)C [β-ionone]	1.28
C=C1CCCC2(C)CCC(=C(C)C)CC12 (stereo not drawn) [γ-Selinene]	4.272
C=C(C)C1=C[C@]2(C)C(=CC1)CCC[C@H]2C [γ-vetivenene]	2.469
b-caryophyllene/aromadendrene	1.565
neryl propanoate/Geranyl isobutanoate	2.298

System: sweetness
Test: Blueberry sensory panels; multiple regression of volatiles against sweetness independent of fructose, glucose and/or sucrose (Table 8)
Assay type: in vivo, human
Settings: contribution to sweetness independent of fructose
Text: Panelists were trained with the scaling methods and were encouraged to return for the remainder of the study. […] Panelists were also asked to rate the intensity of taste and flavor sensations of a hypothetical ideal blueberry on this scale. Each panelist received two to four berries of five to six genotypes in a single panel in a Williams design, which was generated by Compusense 5.6 (Compusense Inc., Guelph, Ontario, Canada). They were asked to eat the blueberries of each genotype at once, and to take a bite of cracker and sip of water in between samples. Ratings were recorded using Compusense software.
Soluble solids content (SSC), titratable acidity (TA), and volatiles were quantified as described above for tomato and strawberries. The volatiles were collected for two hours via dynamic headspace with HaySep Q 80-100 porous polymer adsorbent (Valco Instruments Company Inc., Houston, Tex.) and eluted with methylene chloride and nonyl acetate as an elution standard. […] Integrated peak area of each signal was normalized for elution, fitted to relative pure chemical response, corrected for sample mass, and expressed as nanograms per gram fresh weight per hour (ng gFW-1 h-1). Response fitting was calculated using the response factor of pure chemical standards (Sigma-Aldrich, St. Louis, Mo.) run on the same instrument.
Pair-wise correlations and significance between sensory measurements and primary bio-chemical components were calculated, with panelist as a random effect. Least Square Means (LSMeans) of the sensory data for each sample were obtained to account of the random effect of panelist. […] The response variables (Y) considered corresponded to LSMeans of overall liking, sweetness, sourness, and blueberry flavor intensity. Glucose, fructose, sucrose, TA, pH, and 52 volatile compounds were considered as explanatory variables (X). The inclusion of texture liking was evaluated independently given that no explanatory physical measure was made for sample texture. […] The model was created without texture for analysis.

Compound	t Ratio (Fructose)
C=CC1(C)CCC(C(C)(C)O)O1 (stereo not drawn) [(Z)-linalool oxide (furanoid)]	1.154
C=C1CC[C@H]2O[C@]2(C)CC[C@@H]2[C@@H]1CC2(C)C [(—)-Caryophyllene oxide]	1.845
C=C(C)[C@H]1CC=C(C)CC1 [D-Limonene]	1.176

Same assay, conditions: contribution to sweetness independent of glucose

Compound	t Ratio (Glucose)
C=CC1(C)CCC(C(C)(C)O)O1 (stereo not drawn) [(Z)-linalool oxide (furanoid)]	1.356
C=C1CC[C@H]2O[C@]2(C)CC[C@@H]2[C@@H]1CC2(C)C [(—)-Caryophyllene oxide]	1.608
C=C(C)[C@H]1CC=C(C)CC1 [D-Limonene]	.954

Same assay, conditions: contribution to sweetness independent of sucrose

Compound	t Ratio (Sucrose)
C=CC1(C)CCC(C(C)(C)O)O1 (stereo not drawn) [(Z)-linalool oxide (furanoid)]	1.079
C=C1CC[C@H]2O[C@]2(C)CC[C@@H]2[C@@H]1CC2(C)C [(—)-Caryophyllene oxide]	.982
C=C(C)[C@H]1CC=C(C)CC1 [D-Limonene]	.609

System: perceived sweetness
Test: Tomato taste panel; initial multiple regression of volatiles against perceived sweetness (Table 3)
Assay type: in vivo, human
Settings: tomato
Experimental: (§1) Fully ripe fruit were harvested, and used for taste panels. A random subset of fruit was used for biochemical analysis. Three biological replicates, each consisting of 2-20 fruit (depending on fruit size), were assayed for each variety. […] Panelists were between the ages of 18 and 78 with a median age of 22. […] An average of 85 (range of 66-95) of these panelists evaluated between 4-6 varieties in a session. All panelists went through a training session to familiarize them with the scaling and procedures. Tomatoes were sliced into wedges (or in halves for grape/cherry types) and each panelist was given two pieces for evaluation. Panelists took a bite of each sample, chewed and swallowed it, and rated overall liking and liking for texture. They then rated the perceived intensities of sweetness, sourness, saltiness, umami sensation, bitterness and overall tomato flavor. They were free to take as many bites as necessary to complete the assessments. They were instructed to take a bite of an unsalted cracker and a sip of water between samples. Samples were presented to the panelists in a randomized order. Hedonic ratings used the hedonic gLMS. This scale assesses the liking for tomatoes in the context of all pleasure/displeasure experiences: 0=neutral, −100=strongest disliking of any kind experienced, and +100=strongest liking of any kind experienced. Sensory intensity ratings used the gLMS (7,8,19). This scale assesses taste and flavor sensations in the context of all sensory experience (7): 0=no sensation, 100=strongest sensation of any kind experienced. Both scales were devised to provide valid comparisons across subjects.
(§2) The 68 chemical compounds measured in this experiment were initially divided into six groups based upon biochemical properties: sugars, branched chain amino acids, lipids, carotenoids, phenolics, and acids. A small number of compounds for which biosynthetic pathways are not established were assigned to one of the six classes based upon their correlations with other classified compounds. All pairwise correlations among the set of 68 compounds were calculated. Correlation coefficients were sorted using Modulated Modularity Clustering (MMC) (9) as a visual aid for identifying compounds that are closely related in this sample. Biochemical groups were examined for compounds within the group that were highly correlated and compounds that were upstream in the relevant metabolic pathways were preferentially selected.
(§3) All analyses were performed in SAS v 9.2.
In conducting the multiple regression analysis on the tomato data set, the independent variables were the sugar content (glucose+fructose), and the flavor (indicated by the retronasal perception of volatiles), while the dependent variable was the perceived sweetness.

Compound	association with sweetness after accounting for fructose
CC(C)=CCC/C(C)=C/C=O [geranial]	significant after accounting for fructose

Same assay, conditions: tomato volatiles; multiple regression, contribution to sweetness independent of the measures of sugar

Compound	t
CC1=C(C=O)C(C)(C)CCC1 [beta-cyclocitral]	1.186
C/C=C/C(=O)C1=C(C)C=CCC1(C)C [β-damascenone]	1.012
CC(=O)/C=C/C1=C(C)CCCC1(C)C [β-ionone]	1.135

Same assay, conditions: tomato; univariate models

Compound	association with sweetness
O=C(CO)[C@@H](O)[C@H](O)[C@H](O)CO [fructose]	showed evidence for association with sweetness
CC(C)=CCC/C(C)=C/C=O [geranial]	showed evidence for association with sweetness
CSCCC=O [methional]	showed evidence for association with sweetness

System: perceived sweetness
Test: Tomato taste panel; revised partial least squares regression against sweetness independent of fructose or glucose (Table 4)
Assay type: in vivo, human
Settings: sweetness independent of fructose
Experimental: as §1
Biochemical and psychophysical data sets from fruit and fruit taste panels are mathematically probed for relationships using standard least squares and partial least squares regression modeling techniques (SAS JMP Pro 12.0.1 and R version 3.2.4 statistical software packages). The exact regression type is dependent on the structure of the data, i.e. depending on the size and distributions of the overall datasets.

Compound	FRUCTOSE t RATIO
CC1=C(C=O)C(C)(C)CCC1 [beta-cyclocitral]	1.905
N[C@@H](CCC(=O)O)C(=O)O [glutamatic acid]	−1.746
C/C=C/C(=O)C1=C(C)C=CCC1(C)C [β-damascenone]	0.138
CC(=O)/C=C/C1=C(C)CCCC1(C)C [β-ionone]	2.12

Same assay, conditions: sweetness independent of glucose

Compound	GLUCOSE t RATIO
CC1=C(C=O)C(C)(C)CCC1 [beta-cyclocitral]	1.688
N[C@@H](CCC(=O)O)C(=O)O [glutamatic acid]	−2.953
C/C=C/C(=O)C1=C(C)C=CCC1(C)C [β-damascenone]	0.678
CC(=O)/C=C/C1=C(C)CCCC1(C)C [β-ionone]	1.748

System: flavor intensity
Test: Tomato taste panel; association of compounds with tomato flavor intensity
Assay type: in vivo, human
Settings: univariate models
Experimental: as §1, §2, §3
Due to the large number of chemicals potentially influencing liking, a multivariate analysis of the data was performed. The attributes were initially partitioned into six groups based upon chemical properties and biosynthetic pathways: sugars, branched chain amino acids, fatty acids, carotenoids, phenolics, and acids. […] Groups of structurally related chemicals with known metabolic links were examined for compounds within each module that were highly colinear and compounds that were upstream in relevant metabolic pathways were preferentially selected.

Compound	association with flavor intensity
O=C(CO)[C@@H](O)[C@H](O)[C@H](O)CO [fructose]	associated with flavor intensity
CC(C)=CCC/C(C)=C/C=O [geranial]	associated with flavor intensity
CSCCC=O [methional]	associated with flavor intensity
C/C=C/C(=O)C1=C(C)C=CCC1(C)C [β-damascenone]	not associated with tomato flavor intensity

Reference: patent US11744273B2, “Sweetness enhancing volatile compositions and methods of increasing perceived sweetness of a comestible” (University of Florida Research Foundation, Inc., priority 2016, dated 2023)
